Measurements reported in patent US20090012140A1, “Preparation of Telmisartan Salts with Improved Solubility” (LEK PHARMACEUTICALS D.D, priority 2004, published 2009).

Columns and labels:
Solubility in water = type: physicochemical; conditions: produces a very viscous solution
Procedure: (§1) In order to prepare a pharmaceutical composition physical properties were measured. The solubility of the telmisartan of its salt in accordance with our invention surpasses the solubility of known forms of telmisartan, and are above 10 μg/ml in phosphate buffer pH=6.8 and above 50 μg/ml in a physiologically relevant medium if measured as above. […] The salts are also very soluble in water (i.e dissolving approximately 500 mg/mL of Na salt Form 2 produces a very viscous solution, which can hardly be stirred with a magnetic stirrer.

[1] = Amount dissolved after 30 minutes at 37° C. (50 mg of compound in 100 ml baker, stirring at 600/min); type: physicochemical; conditions: for Solubility compared with sodium salt of telmisartan manufactured by lyophilization: comparison in words; for C30 min: 30 minutes, 37° C., 600/min
Procedure: as §1

[2] = phosphate buffer pH = 6.8, 50 mg in 100 ml
[3] = physiologically relevant medium: phosphate buffer pH 6.76 + sodium taurocholate (2.5 mM) + lecitin (0.5 mM)
[4] = medium pH = 1.2, 50 mg in 100 ml

Structure (SMILES)	Amount dissolving in water (Solubility in water)	C30 min [1, 2] [µg/mL]	C30 min [1, 3] [µg/mL]	C30 min [1, 4] [µg/mL]	Solubility compared with sodium salt of telmisartan manufactured by lyophilization ([1]; listed as crystalline sodium salt of telmisartan)	Solubility compared with sodium salt of telmisartan manufactured by lyophilization [1]
CCCc1nc2c(C)cc(-c3nc4ccccc4n3C)cc2n1Cc1ccc(-c2ccccc2C(=O)O)cc1 [Amorphous telmisartan, telmisartan]	–	17.6	87.5	–	–	–
CCCc1nc2c(C)cc(-c3nc4ccccc4n3C)cc2n1Cc1ccc(-c2ccccc2C(=O)O)cc1 [Form A, telmisartan]	–	0.9	1.1	>500	–	–
CCCc1nc2c(C)cc(-c3nc4ccccc4n3C)cc2n1Cc1ccc(-c2ccccc2C(=O)[O-])cc1.[Na+]	–	–	–	–	–	substantially surpasses that manufactured by lyophilization

Further lines, with some results ahead:

Amount dissolving in water (Solubility in water)	C30 min [1, 2] [µg/mL]	C30 min [1, 3] [µg/mL]	C30 min [1, 4] [µg/mL]	Structure (SMILES)	Solubility compared with sodium salt of telmisartan manufactured by lyophilization ([1]; listed as crystalline sodium salt of telmisartan)	Solubility compared with sodium salt of telmisartan manufactured by lyophilization [1]
approximately 500 mg/mL	–	–	–	CCCc1nc2c(C)cc(-c3nc4ccccc4n3C)cc2n1Cc1ccc(-c2ccccc2C(=O)[O-])cc1.[Na+] [Na salt Form 2, Crystalline Na Salt of Telmisartane Form 2]	surpasses that of the sodium salt of telmisartan manufactured by lyophilization	–
–	29	167.3	394.6	CCCc1nc2c(C)cc(-c3nc4ccccc4n3C)cc2n1Cc1ccc(-c2ccccc2C(=O)[O-])cc1.[Na+] [Amorphous Na salt of telmisartan, Na Salt of Telmisartan]	–	–
